In US20210321638A1, “ANIMAL FEED AND METHODS TO PROVIDE SUCH FEED” (Nutreco Nederland B.V., priority 2016, published 2021):

Experiments:
E. coli = assay: in vitro adhesion of bacteria to coated 96-well plate, time to onset OD600; format: cell-based, Escherichia coli
Source text: (§1) Use was made of a 96-well plate on which the ABM mycelium was coated. For this, the ABM mycelium (in this and each case below a fermented rye product was actually used, in which product the amount of ABM mycelium was about 15% w/w) was suspended in PBS to a final concentration of 1% (w/v) and mixed thoroughly. Subsequently the suspension was centrifuged to remove insoluble material. Thereafter, the supernatant was used for coating the wells of the microtiter plate. For the adhesion assessment, a Salmonella typhimurium suspension was added to the microtiter plate. The plate was then incubated for 30 minutes and after this incubation step washed with PBS. Subsequently growth medium was added to the wells and the time to onset OD600 value was determined. The optical density (OD) measurement was used as a tool to compare numbers of adhered bacteria to the coated wells of the 96-well plate with different compounds. The initial cell density of adhered bacteria correlates with the time-dependent detection of the growth by optical density measurement.
In a second in vitro study, the test was repeated, and additionally the effect on Salmonella enteritidis and E. coli was measured. Also, the amount of ABM mycelium was used in the full amount (see above; denoted “100%”), half of this amount (“50%”) and a quarter of this amount (“25%”). […]

Salmonella typhimurium = assay: as above; format: cell-based; conditions: Table 4, Example 4; total amount of agents the same in all experiments; control 6.95
Protocol: Example 1 describes an in vitro model study for assessing the effect of ABM mycelium on bacterial adhesion. In this method the adhesion of Salmonella typhimurium to ABM mycelium is assessed.
as §1
In a second in vitro study, the test was repeated, and additionally the effect on Salmonella enteritidis and E. coli was measured. […]

## OC[C@H]1O[C@@H](O[C@H]2[C@H](O)[C@H](O)C(O)O[C@@H]2CO)[C@@H](O)[C@@H](O)[C@@H]1O (stereo partly drawn) [β-1,4-mannobiose]
E. coli; Example 4, compared to the control and β-1,4-mannobiose alone
  effect on the adhesion of E. coli / onset OD600, in words: does not have an effect
E. coli; Table 4, Example 4, total amount of agents the same in all experiments, control 7.10
  time to onset OD600, E. coli: 7.30 h
Salmonella typhimurium
  time to onset OD600, S. typhimurium: 5.90 h
